{"source": "patent US20110092423A1", "about": "“INHIBITORS OF Akt ACTIVITY” (GlaxoSmithKline, LLC, priority 2008, published 2011)", "target": "T1, full length AKT1 (Homo sapiens, UniProt P31749)", "T1 construct": "Full-length human AKT1 gene was amplified by PCR; His tag (from vector pFastbacHTb; purified on Nickel Sepharose) (N); made in house; host or cells: baculovirus; Sf9 / T. ni insect cells", "T1 sequence (P31749 whole entry)": "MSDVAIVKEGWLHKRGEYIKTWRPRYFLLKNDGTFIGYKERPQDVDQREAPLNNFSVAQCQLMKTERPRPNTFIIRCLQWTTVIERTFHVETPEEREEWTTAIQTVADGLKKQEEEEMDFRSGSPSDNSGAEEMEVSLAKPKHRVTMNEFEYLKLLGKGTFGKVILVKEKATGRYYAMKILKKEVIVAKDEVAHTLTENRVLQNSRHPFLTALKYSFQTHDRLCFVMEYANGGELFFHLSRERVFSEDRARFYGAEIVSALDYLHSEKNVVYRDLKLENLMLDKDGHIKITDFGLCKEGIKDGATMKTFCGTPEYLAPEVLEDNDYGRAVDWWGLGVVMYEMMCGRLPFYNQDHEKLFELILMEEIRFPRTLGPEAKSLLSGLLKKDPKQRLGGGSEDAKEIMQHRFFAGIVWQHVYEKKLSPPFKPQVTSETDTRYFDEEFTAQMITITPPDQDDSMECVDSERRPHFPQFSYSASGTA", "assay": "Full-length AKT enzyme assay (substrate phosphorylation, SPA)", "assay_type": "biochemical", "settings": "in at least one experimental run; pIC50 = -log(IC50), IC50 in molar units; 4 uM ATP, 10 nM enzyme; read-out: pIC50 value against full length AKT1 (converted)", "source_text": "Cloning of Full-Length Human (FL) AKT1:\nFull-length human AKT1 gene was amplified by PCR from a plasmid containing myristylated-AKT1-ER (gift from Robert T. Abraham, Duke University under MTA, described in Klippel et al. in Molecular and Cellular Biology 1998 Volume 18 p. 5699) using the 5′ primer: SEQ. ID NO: 2 5′ […] 3′ and the 3′ primer: SEQ. ID NO: 3 […] 3′. The 5′ primer included a BamHI site and the 3′ primer included an XhoI site for cloning purposes. The resultant PCR product was subcloned in pcDNA3 as a BamHI/XhoI fragment. […]\nCompounds of the present invention were tested for AKT 1, 2, and 3 protein serine kinase inhibitory activity in substrate phosphorylation assays. […] Substrate phosphorylation was detected by the following procedure.\nAssays were performed in 384 well U-bottom white plates. […] The reaction was stopped by the addition of 50 ul SPA bead mix (Dulbecco's PBS without Mg^2+ and Ca^2+, 0.1% Triton X-100, 5 mM EDTA, 50 uM ATP, 2.5 mg/ml Streptavidin-coated SPA beads.) The plate was sealed, the beads were allowed to settle overnight, and then the plate was counted in a Packard Topcount Microplate Scintillation Counter (Packard Instrument Co., Meriden, Conn.). […]"}
{"molecule": "Cn1ncc(Cl)c1-c1ncc(C(=O)N[C@H](CN)Cc2cccc(F)c2)s1", "note": "[Example 2, N-{(1S)-2-amino-1-[(3-fluorophenyl)methyl]ethyl}-2-(4-chloro-1-methyl-1H-pyrazol-5-yl)-1,3-thiazole-5-carboxamide]", "values": [{"measurement": "IC50", "result": 10, "unit": "nM"}]}
